# Assay results as given in publication PMC7960611, “A phase 1 study of crenigacestat (LY3039478), the Notch inhibitor, in Japanese patients with advanced solid tumors” (Investigational New Drugs, 2020).
# “And” between values parts separate entries of the source, which are not always exact repeats. Equal values may be shown once. “Also recorded” adds a separate entry of the source. Read-outs that look alike come from different tables or passages of the source.
# How the values were obtained:
# [1] = tested on: Japanese patients with advanced solid tumors; assay: Safety assessment: adverse events (CTCAE v 4.0), DLT/DLET, phase 1 dose escalation; assay type: in vivo, human
# Experimental: The study consisted of 2 dose levels of crenigacestat (25 mg and 50 mg), administered orally TIW prior to a meal. A cycle was defined as 28 days. Patients were admitted to the investigational site for 4 weeks through the entire first cycle but were discharged and managed on an outpatient basis on or after day 15 upon investigator discretion. The planned duration of treatment was not fixed. Treatment continued until disease progression, development of unacceptable toxicity, or any other discontinuation criteria were met.
# Data were evaluated on an ongoing basis until the tolerability of crenigacestat for 50 mg was confirmed. Safety data, in particular adverse events (AEs), were the primary criteria for dose escalation. Dose escalation was driven for each treatment combination using the 3 + 3 method. Transition of dose level (from 25 to 50 mg) proceeded if the frequency of dose-limiting toxicity (DLT) observed in cycle 1 was <33% of patients in the first dose level (25 mg). For DLTs, an evaluable patient was defined as a patient who received ≥75% of the planned dose in cycle 1 or a patient who experienced DLT in cycle 1.
# Adverse events were collected throughout the study and coded using Medical Dictionary for Regulatory Activities (MedDRA) terms (Version 22.0). […]
# [2] = tested on: advanced solid tumors in Japanese patients; assay: Efficacy assessment: tumor response (RECIST v1.1); assay type: in vivo, human
# Experimental: Tumor response, including overall response rate, was measured using RECIST v1.1 [12] or the Response Assessment in Neuro-Oncology criteria for glioblastoma. Patient’s full extent of disease was also assessed via evaluation of performance status (ECOG). Where applicable, tumor measurements were performed by positron emission tomography response criteria of the European Organization for Research and Treatment of Cancer, as well as evaluation of tumor markers. To confirm objective responses, all lesions were radiologically assessed and the same radiologic method used at baseline and for the initial response determination was repeated at least 4 weeks following the initial observation of an objective response.
# [3] = Pharmacokinetics: plasma concentrations by LC-MS/MS, noncompartmental analysis; assay type: in vivo; settings: human; for AUC(0-inf) / Cmax / AUC(0-t): geometric mean (%CV); for AUC(0-t): read-out: AUC0–48
# Experimental: All patients who received at least 1 dose of the study drug, and had sufficient samples collected, were included in the PK analysis. […] Plasma concentrations of crenigacestat were quantified using a validated liquid chromatography-tandem mass spectrometry (LC-MS/MS) assay. The PK parameters for crenigacestat were calculated by standard noncompartmental methods of analysis. The primary PK parameters for analysis were maximum plasma concentration (Cmax) and area under the plasma concentration-time curve (AUC) from time zero to infinity or over 1 dosing interval at steady state of crenigacestat.
# [4] = tested on: non-Japanese patients with advanced or metastatic cancers; set-up: method as in PMID 30060061; settings: TIW during a 28-day cycle; cited from earlier work
# [5] = po, 25 mg, Day 1 (Dose 1), 25 mg oral TIW
# [6] = po, 25 mg, Day 22 (Dose 10), 25 mg oral TIW
# [7] = po, 50 mg, Day 1 (Dose 1), 50 mg oral TIW
# [8] = po, 50 mg, Day 22 (Dose 10), 50 mg oral TIW
smiles,measurement,setting,value
"C[C@H](NC(=O)CCC(F)(F)F)C(=O)N[C@@H]1C(=O)N(CCO)c2ncccc2-c2ccccc21 [Crenigacestat, crenigacestat]","Serious adverse events (SAEs), discontinuation or death due to an AE","[1]; both treatment arms, on treatment or within 30 days of discontinuation","no patients who reported any serious adverse events (SAEs), discontinued study treatment due to an adverse event (AEs) or SAE, or died due to an AE"
same,Recommended dose in Japanese patients,"[1]; human, in vivo, po, 28 days",50 mg
same,Complete or partial response to the treatment,"[2]; 25 mg and 50 mg oral TIW, all patients",None of the patients had a complete or partial response; also recorded: no partial or complete responses
same,Best overall response: Complete response (CR),[2]; 25 mg oral TIW (n = 4),0 n (%)
same,Best overall response: Partial response (PR),[2]; 25 mg oral TIW (n = 4),0 n (%)
same,Best overall response: Progressive disease,[2]; 25 mg oral TIW (n = 4),4 (100.0) n (%)
same,Disease control rate (CR/PR/SD),[2]; 25 mg oral TIW (n = 4),0 n (%)
same,Best overall response: Complete response (CR),[2]; 50 mg oral TIW (n = 7),0 n (%)
same,Best overall response: Partial response (PR),[2]; 50 mg oral TIW (n = 7),0 n (%)
same,Best overall response: Progressive disease,[2]; 50 mg oral TIW (n = 7),6 (85.7) n (%)
same,Disease control rate (CR/PR/SD),[2]; 50 mg oral TIW (n = 7),1 (14.3) n (%)
same,Duration of stable disease,"[2]; one patient with a desmoid tumor, 50-mg treatment arm",22.5 months and 22.47 months
same,Tumor size shrinkage,"[2]; one patient with a desmoid tumor, 50-mg treatment arm, first 8 cycles",22.4% and 22.37%
same,AUC(0-inf),"[3]; Day 1 (Dose 1), 25 mg oral TIW",1480 ng·h/mL
same,AUC(0-inf),"[3]; Day 1 (Dose 1), 50 mg oral TIW",3080 ng·h/mL
same,Tmax,"[3]; oral, postdose, each dose level, read-out: Median time to maximum plasma concentration (tmax)",~2 h
same,half-life,"[3]; po, 25 mg and 50 mg oral TIW, read-out: Mean t1/2 (converted)",~4 h
same,Cmax,[3]; [5],324 ng/mL
same,AUC(0-t),[3]; [5],1480 ng·h/mL
same,Tmax,"[3]; po, 25 mg, Day 1 (Dose 1), 25 mg oral TIW, read-out: tmax, median (range)",1.92 h
same,half-life,"[3]; po, 25 mg, Day 1 (Dose 1), 25 mg oral TIW, read-out: t½, geometric mean (range) (converted)",3.64 h
same,Cmax,[3]; [6],429 ng/mL
same,AUC(0-t),[3]; [6],2070 ng·h/mL
same,Tmax,"[3]; po, 25 mg, Day 22 (Dose 10), 25 mg oral TIW, read-out: tmax, median (range)",1.88 h
same,half-life,"[3]; po, 25 mg, Day 22 (Dose 10), 25 mg oral TIW, read-out: t½, geometric mean (range) (converted)",4.19 h
same,Cmax,[3]; [7],670 ng/mL
same,AUC(0-t),[3]; [7],3080 ng·h/mL
same,Tmax,"[3]; po, 50 mg, Day 1 (Dose 1), 50 mg oral TIW, read-out: tmax, median (range)",1.93 h
same,half-life,"[3]; po, 50 mg, Day 1 (Dose 1), 50 mg oral TIW, read-out: t½, geometric mean (range) (converted)",3.89 h
same,Cmax,[3]; [8],416 ng/mL
same,AUC(0-t),[3]; [8],2090 ng·h/mL
same,Tmax,"[3]; po, 50 mg, Day 22 (Dose 10), 50 mg oral TIW, read-out: tmax, median (range)",1.94 h
same,half-life,"[3]; po, 50 mg, Day 22 (Dose 10), 50 mg oral TIW, read-out: t½, geometric mean (range) (converted)",3.67 h
same,"Recommended phase 2 dose, monotherapy",[4],50 mg
